According to patent US20250057864A1, “COMPOSITION FOR IMPROVING EXERCISE PERFORMANCE COMPRISING GYPENOSIDE COMPOUND AS ACTIVE INGREDIENT” (BTC CORPORATION, priority 2022, published 2025):

Legend:
[1] = tested on: GSY, SIRT1, PPARγ in C2C12 cells; experiment: mRNA expression of genes related with energy in C2C12 cells; type: cell-based, mice; conditions: C2C12, 0.36 μg/mL (Cr 5 μg/mL), control G1 = 1.00
Protocol: C2C12 cells were dispensed into a 6-well plate at 2×10^5 cells/well and stabilized for 24 hours. In order to investigate the effect of each test substance on muscle cell differentiation, each test substance was added to the myocyte differentiation medium. The cells were cultured for 4 days (mRNA analysis) or 7 days (protein analysis) after exchanging the cell culture medium with the myocyte differentiation medium treated with each test substance, as shown in Table 2.
C2C12 cells were dispensed into a 6-well plate at 2×10^5 cells/well and stabilized for 24 hours. The cells were cultured for 2 or 4 days after replacing the cell culture with a myocyte differentiation medium containing the test substance. After collecting the cells, total RNA was isolated using an RNeasy Plus Mini kit (QIAGEN), and quantified using a micro-volume spectrophotometer (BioSpec-nano, Shimadzu). RNAs with an OD260/280 value greater than 1.8 were used for experiment.
After obtaining cDNA from the total RNA (2 μg) using a HyperScript™ RT master mix kit (GeneAll Biotechnology), real-time PCR was performed using a Rotor-Gene 300 PCR kit (Corbett Research) and a Rotor-Gene™ SYBR Green kit (QIAGEN). Quantitative analysis of the gene expression was performed using the Rotor-Gene 6000 Series System Software program (Corbett Research).
The result of investigating the effect of the compositions according to Examples 1 to 4 on the mRNA expression of GSY, SIRT1 and PPARγ involved in the energy metabolism of muscle cells is shown in Table 11.

ICR mice [2] = experiment: Treadmill test: exercise time and exercise capacity until exhaustion; type: in vivo; conditions: 6 weeks
Protocol: After an acclimatization period of 1 week, healthy animals were selected and divided into 6 groups according to the randomized block design. The animals were divided into (G1) a non-exercise control group, (G2) a non-exercise+7 mg/kg body weight (BW) Example 1 group, (G3) a non-exercise+7 mg/kg BW Example 2 group, (G4) a non-exercise+7 mg/kg BW Example 3 group, (G5) a non-exercise+7 mg/kg BW Example 4 group, (G6) an exercise control group, (G7) an exercise+7 mg/kg BW Example 1 group, (G8) an exercise+7 mg/kg BW Example 2 group, (G9) an exercise+7 mg/kg BW Example 3 group, (G10) an exercise+7 mg/kg BW Example 4 group, and (G11) an exercise+75 mg/kg BW Cr dose group. Each test group consisted of 10 animals.
The test substance was dissolved in drinking water and administered every day at regular times (2 hours before exercise) for 6 weeks. Throughout the test period, the experimental animals were given free access to solid feed for experimental animals (Cargill Agri Puna) and drinking water.
The endurance exercise of the animals was conducted for 6 weeks using a treadmill for small animals (Exer3/6 Treadmill, Columbus Instruments). The endurance exercise was conducted with 10 degrees of slope at 10 m/min, starting from for 15 minutes in the first week, for 20 minutes in the second week, for 25 minutes in the third week, for 30 minutes in the fourth week, for 35 minutes in the fifth week, and for 40 minutes in the sixth week.
After 6 weeks of the exercise training, in order to evaluate endurance exercise performance, exercise was started with 10 degrees of slope at 10 m/min for 5 minutes, and the intensity of the exercise was increased by 1 m/min every 1 minute up to the highest speed of 25 m/min. The duration of the exercise until exhaustion was measured. The experimental animal was judged to be exhausted if it was unable to run for 10 seconds or longer at the back of the treadmill. The exercise capacity of the experimental animal was calculated as follows.
In order to evaluate the performance of the effect of the test substances on endurance exercise performance, exercise was started with 10 degrees of slope at 10 m/min for 5 minutes, and the intensity of the exercise was increased by 1 m/min every 1 minute up to the highest speed of 25 m/min.

ICR mice [3] = experiment: Serum markers after 60 min forced swimming without weight load; type: in vivo; conditions: serum after 60 min forced swimming, day 17, oral 7 mg/kg BW
Protocol: On day 17 after the administration of the test substance, the experimental animal was forced to swim (for 60 minutes) without a weight load. Then, the experimental animal was anesthetized using an anesthetic prepared by dilution of tribromoethanol with tertiary amyl alcohol and blood was taken from the eye socket. The blood was placed in a serum-separating tube (Becton Dickinson) and left at room temperature for 30 minutes, centrifuged at 3,000 rpm for 20 minutes to separate the serum, and kept at −70° C. until analysis.
Blood urea nitrogen (BUN) and creatinine (CREA) content in the serum and the activities of alanine aminotransferase (ALT), aspartate aminotransferase (AST), creatine kinase (CK) and lactate dehydrogenase (LDH) were measured using a blood biochemistry analyzer (KoneLab 20 XT, Thermo Fisher Scientific). The serum lactate content was measured using a lactate assay kit (Abcam) according to the method proposed by the manufacturer.
The result of measuring the contents of lactate, BUN and CREA and the activities of CK, LDH, ALT and AST in the serum taken after forced swimming for 60 minutes without weight load is shown in Table 19.

ICR mice [4] = experiment: Weight-loaded forced swimming test, time to exhaustion; type: in vivo; conditions: forced swimming with 5% BW load, day 14, oral 7 mg/kg BW
Protocol: After an acclimatization period of 1 week, healthy animals were selected and divided into 6 groups of 10 mice per group according to the randomized block design. A normal control group was orally administered with 5% Tween 80-saline, and a composition was orally administered with Creatine monohydrate (Cr) at 75 mg/kg body weight (BW). Test groups (G2 to G5) were orally administered the compositions of Examples 1 to 4 dissolved in drinking water to 7 mg/kg body weight (BW) at regular times for 17 days. Throughout the test period, the experimental animals were given free access to solid feed for experimental animals (Cargill Agri Puna) and drinking water.
Weight-loaded forced swimming test was performed for the experimental animals as follows. A plastic pool (90×45×45 cm) was filled with water at the depth of 35 cm and the temperature of the water was maintained at 25±1° C. After attaching a weight (5% of the body weight of the experimental animal) to the tail, the experimental animal was forced to swim in the pool.
On days 10 and 12 after the administration of the test substance, swimming adaptation exercise was given twice for 15 minutes each. Two days after the final swimming adaptation exercise (on day 14 after the administration of the test substance), forced swim test was performed after fasting the experimental animal for 16 hour, and the time until exhaustion was measured. […]

[5] = non-exercise, 7 mg/kg BW, treadmill test
[6] = treadmill exercise, 7 mg/kg BW (Cr 75 mg/kg BW)

In the case of CN(CC(=O)O)C(=N)N.O [Cr, Creatine monohydrate, reference compound], the “mRNA expression PPARγ” value [1] is reported as 2.93 ± 1.32 and the “mRNA expression Sirt1” value [1] is reported as 1.13 ± 0.18.

With CC(C)=CCC[C@](C)(O)C1CC[C@]2(C)C1[C@H](O)CC1[C@@]3(C)C[C@@H](O)C(OC4OC(CO)C(O)C(O)C4OC4OC(CO)C(O)C(O)C4O)C(C)(C)C3CC[C@]12C (stereo partly shown) [Example 1, Gypenoside L] the Exercise capacity (ICR mice [2]; [5]) was 1,583 ± 91 g, the “Time until exhaustion (sec)” value (ICR mice [2]; [5]) was 1,472 ± 66 sec and the Exercise capacity (ICR mice [2]; [6]) was 2,832 ± 119^+ g. The “Time until exhaustion (sec)” value (ICR mice [2]; [6]) was 2,393 ± 93^+ sec, the ALT (ICR mice [3]) was 100.41 ± 19.75 U/L and the AST (ICR mice [3]) was 160.81 ± 20.53 U/L. It also gave a BUN (ICR mice [3]) of 8.15 ± 0.68 mg/dL, a CK (ICR mice [3]) of 1896.1 ± 196.4 U/L and a CREA (ICR mice [3]) of 0.35 ± 0.01 mg/dL. The LDH (ICR mice [3]) was 1224.3 ± 162.1 U/L, the “mRNA expression GSY” value [1] was 2.71 ± 0.32 and the “mRNA expression PPARγ” value [1] was 1.16 ± 0.47. The “mRNA expression Sirt1” value [1] was 1.40 ± 0.22 and the “Time to exhaustion” value (ICR mice [4]) was 1193.4 ± 176.8 s.
